Test results published in paper PMC2965585 (Bioorganic & medicinal chemistry letters, 2010).

Key:
[1] = test system: Lethal Toxin (LT; PA + LF); design: species or system Fischer 344 rats; details: rat, in vivo
[2] = molecular target: anthrax lethal factor (LF) (Bacillus anthracis, UniProt P15917); type: biochemical
Chain of anthrax lethal factor (LF) (P15917 34-809 limits assumed): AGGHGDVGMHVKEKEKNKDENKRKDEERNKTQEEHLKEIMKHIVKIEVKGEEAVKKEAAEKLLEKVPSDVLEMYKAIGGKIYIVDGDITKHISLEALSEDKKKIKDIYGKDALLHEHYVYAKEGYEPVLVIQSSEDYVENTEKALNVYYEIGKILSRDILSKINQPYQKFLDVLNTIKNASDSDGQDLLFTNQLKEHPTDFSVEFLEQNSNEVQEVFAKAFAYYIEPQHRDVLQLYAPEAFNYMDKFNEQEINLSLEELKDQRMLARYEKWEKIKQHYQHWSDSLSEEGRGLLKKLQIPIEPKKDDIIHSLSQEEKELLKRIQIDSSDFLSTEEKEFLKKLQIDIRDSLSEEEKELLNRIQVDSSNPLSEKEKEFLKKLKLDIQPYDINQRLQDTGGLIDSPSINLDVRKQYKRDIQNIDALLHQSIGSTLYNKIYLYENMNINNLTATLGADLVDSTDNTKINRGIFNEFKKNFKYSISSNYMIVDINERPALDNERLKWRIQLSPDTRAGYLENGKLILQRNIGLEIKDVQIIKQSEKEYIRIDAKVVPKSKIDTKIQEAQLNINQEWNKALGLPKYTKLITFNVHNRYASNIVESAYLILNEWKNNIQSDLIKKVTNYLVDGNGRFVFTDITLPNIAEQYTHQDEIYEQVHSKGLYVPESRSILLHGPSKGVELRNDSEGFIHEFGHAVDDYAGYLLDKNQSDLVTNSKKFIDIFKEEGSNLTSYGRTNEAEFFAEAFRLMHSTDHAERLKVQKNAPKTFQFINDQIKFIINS

Compound	protection [1]	protection (percent survival) [1] [%]	time after treatment with LT at which animals became ill ([1]; 2.5 mg/kg)	time post exposure by which animals appeared fully recovered ([1]; 2.5 mg/kg) [h]	mode of inhibition (kinetic studies) [2]
Cc1cc(CNCCCC[C@@H](Nc2cc(C)c(F)c(C)c2)C(=O)NO)ccc1F [Compound 16]	fully protective	100	approximately 3 hours	≤ 24	
CO[C@H](C[C@H](CCN(C)CCCc1ccc(F)c(C)c1)C(=O)NO)c1ccc(F)cc1 [Compound 40]					competitive behavior
